The values below come from article PMC11005685, “Identification of Potent siRNA Delivery Peptides Using Computer Modeling” (Advanced Science, 2024).

The test system of one series is mouse liver cells. The series is described as follows: scRNA-seq of liver after vector injection. Type of series: in vivo. The protocol: (§1) Freshly tissues were washed in Hanks’ balanced salt solution, and cut into small pieces on ice, then digested with collagenase I and IV. After incubated for 30 min at 37°C with continuous shaking. The shredded tissues were filtered the 70 µm nylon mesh, and the obtained cells were centrifuged at 4°C. Red blood lysis buffer added in pelleted cells and shaked up and down 10 times, and then washed three times, finally resuspended in buffer (added 0.04% BSA in PBS). After removing dead cells in suspensions by flow cytometry, the process of single‐cell RNA‐seq following the standard instructions.
The generation of raw counts matrices was accomplished using CellRanger software, version 6.0.0, referencing the GRCm38 mouse genome. To attain a data set purified of doublets, the Scrublet software was employed. Subsequently, the filtered counts matrices underwent loading into the R software (version 4.0.3), facilitated by the Seurat package. Cells were meticulously curated to exclude those expressing either an excessive (>7000) or an insufficient (<200) number of genes, or presenting high mitochondrial counts (>20%). The raw data were then subjected to normalization using the LogNormalize method. The selection of the top 2000 highly variable genes was carried out with Seurat's FindVariableFeatures function, applying the vst method as the basis for further analysis. To harmonize the batch effects, the IntegrateData function in Seurat was employed. Dimensionality reduction was realized through Principal Component Analysis (PCA), with the leading 30 principal components (PCs) forming the basis for Uniform Manifold Approximation and Projection (UMAP) performance. Cluster identification ensued using Seurat's FindClusters function, setting the resolution at 0.5. Marker gene elucidation was achieved using the differential expression analysis through the Wilcox rank‐sum test, as implemented in the FindAllMarkers function (fold change≥2 and adjusted P≤0.05). Cell clusters underwent annotation against known cell type markers to ascertain their identity. […]

A further series deals with mouse lung cells. The series is described as follows: scRNA-seq of lung after vector injection. The format is in vivo. The protocol:
as §1
The generation of raw counts matrices was accomplished using CellRanger software, version 6.0.0, referencing the GRCm38 mouse genome. To attain a data set purified of doublets, the Scrublet software was employed. Subsequently, the filtered counts matrices underwent loading into the R software (version 4.0.3), facilitated by the Seurat package. Cells were meticulously curated to exclude those expressing either an excessive (>7000) or an insufficient (<200) number of genes, or presenting high mitochondrial counts (>20%). The raw data were then subjected to normalization using the LogNormalize method. The selection of the top 2000 highly variable genes was carried out with Seurat's FindVariableFeatures function, applying the vst method as the basis for further analysis. To harmonize the batch effects, the IntegrateData function in Seurat was employed. Dimensionality reduction was realized through Principal Component Analysis (PCA), with the leading 30 principal components (PCs) forming the basis for Uniform Manifold Approximation and Projection (UMAP) performance. Cluster identification ensued using Seurat's FindClusters function, setting the resolution at 0.5. Marker gene elucidation was achieved using the differential expression analysis through the Wilcox rank‐sum test, as implemented in the FindAllMarkers function (fold change≥2 and adjusted P≤0.05). Cell clusters underwent annotation against known cell type markers to ascertain their identity. Akin analyses focusing on subclusters of Kupffer cells and Neutrophils were conducted applying a similar methodological framework. Recognition of differentially expressed genes between two groups was facilitated by the Wilcox rank‐sum test via Seurat's FindMarkers function (fold change≥2 and adjusted P≤0.05). Data visualization was executed utilizing the ggplot2 package within the R software. Functional annotations and pathway enrichment analyses, considering the Gene Ontology (GO), were performed with the clusterProfiler package, deeming terms statistically significant at a P≤0.05.

`CCCCCCCC/C=C\CCCCCCCC(=O)OCC(C[N+](C)(C)C)OC(=O)CCCCCCC/C=C\CCCCCCCC` (stereo not shown) [DOTAP]: in the series with mouse liver cells (liver, vs untreated (NS), total number of genes), the “differentially expressed genes in Kupffer cells” value worked out at 7. Moreover, in the series with mouse liver cells (liver, vs untreated, total number of DEGs), the “differentially expressed genes in liver neutrophils” value was found to be 45. Besides, the “change in cellular composition of liver” value in the series with mouse liver cells (vs normal control (saline-injected)) was “sharp increase in the number of neutrophils and a decrease in the number of immune cells”. Further, the “alveolar macrophages distributed in the Sirpa+ cluster” value in the series on mouse lung cells (lung scRNA-seq subclustering) is given as 73%. In addition, the “differentially expressed genes in lung neutrophils” value in the series with mouse lung cells (lung, vs untreated, total number of DEGs) was 18. The “differentially expressed genes in alveolar macrophages” value in the series with mouse lung cells (lung, vs untreated, total number of genes) was 12. For the same compound, in the series on mouse lung cells (vs untreated group), the “change in cellular composition of lung” value was “sharp increase in the number of neutrophils and alveolar macrophages and a decrease in the number of immune cells and endothelial cells”.
